Data on 21 compounds can be found in patent US20220168309A1 (F-STAR THERAPEUTICS, INC., priority 2019, published 2022).

A value given as a limit tells only on which side of the number the result lay.

In the first assay the test system is TLR4/NF-κB activation. Description: LPS-induced TLR4/NF-κB activation in RAW-WT cells. In kind it is cell-based.
Conditions: not given
For the compound `COC(=O)CCCCCCCCCCCCCCCn1cnc2nc(Cl)nc(Cl)c21` [Compound 6], the “inhibition of LPS-induced TLR4/NF-κB activation” value was “seems to inhibit”.

For a further assay, the target named is STING (Homo sapiens, UniProt Q86WV6). Nature of the assay: STING antagonist activity, cell-based ISG54 promoter-reporter luciferase measurement of IRF activity (THP-1 dual / RAW-ISG cells). The following applies: Antagonist Activity of Exemplary Compounds; cell line and agonist not given. The essentials: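 THP-1 dual or RAW-ISG cells (50,000/well) pretreated 1 h with compound (10 to 0.01 uM), then stimulated with SB 11285 (30 nM or 1 μM) or 2′3′-cGAMP (10 ug/mL or lipo mixture) for 18–20 h at 37° C. IRF-driven luciferase read by Quanti-Luc; % inhibition versus untreated or DMSO wells, IC50 by curve fit.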
Chain of STING (Q86WV6 whole entry): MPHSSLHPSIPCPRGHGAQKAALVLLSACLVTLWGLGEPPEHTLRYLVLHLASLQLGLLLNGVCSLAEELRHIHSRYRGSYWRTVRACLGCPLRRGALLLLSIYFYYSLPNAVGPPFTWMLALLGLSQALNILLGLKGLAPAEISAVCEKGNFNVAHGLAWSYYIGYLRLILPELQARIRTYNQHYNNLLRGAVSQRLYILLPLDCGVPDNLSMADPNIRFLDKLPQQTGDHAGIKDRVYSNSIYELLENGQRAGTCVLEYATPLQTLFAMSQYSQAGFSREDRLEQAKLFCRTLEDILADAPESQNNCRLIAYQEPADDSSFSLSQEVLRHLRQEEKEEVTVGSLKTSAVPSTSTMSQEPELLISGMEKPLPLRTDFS
`COC(=O)CCCCCCCCCCCCCCCn1cnc2nc(Cl)nc(Cl)c21` [Compound 6] returned an IC50 of 1 to 1000 nM.

Staying with this assay, now noted: Antagonist Activity of Exemplary Compounds; cell line and agonist not given; read-out: IC50.
In the case of `Cc1nc2nc(Cl)nc(Cl)c2n1CCCCCCCCCCCCCCCC(=O)OC[C@H](O)CO` [Compound 104, (R)-2,3-dihydroxypropyl 16-(2,6-dichloro-8-methyl-7H-purin-7-yl)hexadecanoate], the IC50 was 1 to 1000 nM.
Take `Cc1nc2c(Cl)nc(Cl)nc2n1CCCCCCCCCCCCCCCCO` [Compound 76, 16-(2,6-dichloro-8-methyl-9H-purin-9-yl)hexadecan-1-ol]: the IC50 lay in the range of 5000 to 10000 nM.
On the same count and under the same terms, under `COC(=O)CCCCCCn1cnc2nc(Cl)nc(Cl)c21` [Compound 13] stands 1 to 1000 nM; under `CCOC(=O)Cn1cnc2nc(Cl)nc(Cl)c21` [Compound 8], 1 to 1000 nM.
In the case of `OCCOCCOCCOCCn1cnc2c(Cl)nc(Cl)nc21` [Compound 51, 2-(2-(2-(2-(2,6-dichloro-9H-purin-9-yl)ethoxy)ethoxy)ethoxy)ethan-1-ol], the IC50 is over 20000 nM.
Still for that read-out and setting: under `Cc1nc2nc(Cl)nc(S(=O)(=O)C(C)C)c2n1CCCCCCCCCCCCCCCC(=O)OC[C@@H](O)CO` [Compound 135, (S)-2,3-dihydroxypropyl 16-(2-chloro-6-(isopropylsulfonyl)-8-methyl-7H-purin-7-yl)hexadecanoate] stands 1 to 1000 nM.
The same measure, in the same setting: under `COC(=O)CCCCCCCCCCCCCCCn1c(C)nc2nc(Cl)nc(S(C)(=O)=O)c21` [Compound 69, methyl 16-(2-chloro-8-methyl-6-(methylsulfonyl)-7H-purin-7-yl)hexadecanoate] stands 1 to 1000 nM; under `CC(=O)NCCCCCCCCCCCCCCCCn1c(C)nc2nc(Cl)nc(Cl)c21` [Compound 166, N-(16-(2,6-dichloro-8-methyl-7H-purin-7-yl)hexadecyl)acetamide], 1 to 1000 nM.
On the same count and under the same terms, under `Cc1nc2nc(Cl)nc(Cl)c2n1CCCCCCCCCCCCCCCCO` [Compound 75] stands 1 to 1000 nM; under `COC(=O)CCCCCCCCCCCCCCn1c(C)nc2nc(Cl)nc(Cl)c21` [Compound 161, Methyl 15-(2,6-dichloro-8-methyl-7H-purin-7-yl)pentadecanoate], 1 to 1000 nM; under `CCOC(=O)CCCCCCCn1cnc2nc(Cl)nc(Cl)c21` [Compound 12], 1 to 1000 nM.
Consider `COC(=O)CCCn1cnc2nc(Cl)nc(Cl)c21` [Compound 37, methyl 4-(2,6-dichloro-7H-purin-7-yl)butanoate], for which the half-maximal inhibitory concentration (IC50) was 5000 to 10000 nM.
On the same count and under the same terms, under `COc1ccc(Cn2c(C)nc3nc(Cl)nc(Cl)c32)cc1` [Compound 67, 2,6-dichloro-7-(4-methoxybenzyl)-8-methyl-7H-purine] stands 1000 to 5000 nM; under `Cc1nc2nc(Cl)nc(Cl)c2n1CCCCCCCCCCCCCCCC(=O)N1CCNCC1` [Compound 87, 16-(2,6-dichloro-8-methyl-7H-purin-7-yl)-1-(piperazin-1-yl)hexadecan-1-one], 10000 to 20000 nM.
The same measure, in the same setting: with `COC(=O)CCCCCCCCCCCCCCCn1cnc2nc(N)nc(Cl)c21` [Compound 5] the figure was 5000 to 10000 nM; with `Cc1nc2nc(Cl)nc(S(=O)(=O)C(C)C)c2n1CCCCCCCCCCCCCCCC(=O)OC[C@@H]1COC(C)(C)O1` [Compound 134, (S)-(2,2-dimethyl-1,3-dioxolan-4-yl)methyl 16-(2-chloro-6-(isopropylsulfonyl)-8-methyl-7H-purin-7-yl)hexadecanoate], 1 to 1000 nM; with `COC(=O)CCCCCCCCCCCCCCCn1cnc2ncnc(Cl)c21` [Compound 1], 1000 to 5000 nM.
Take `Cc1nc2nc(Cl)nc(S(=O)(=O)C(C)C)c2n1CCCCCCCCCCCCCCCC(=O)OC(C)C` [Compound 96, isopropyl 16-(2-chloro-6-(isopropylsulfonyl)-8-methyl-7H-purin-7-yl)hexadecanoate]: the IC50 was 1 to 1000 nM.
The same measure, in the same setting: with `COC(=O)CCCCCCN(C)CCCCCCCCn1c(C)nc2nc(Cl)nc(S(=O)(=O)C(C)C)c21` [Compound 152, Methyl 7-((8-(2-chloro-6-(isopropylsulfonyl)-8-methyl-7H-purin-7-yl)octyl)(methyl)-amino)heptanoate] the figure was 1000 to 5000 nM; with `Cc1nc2nc(Cl)nc(Cl)c2n1C/C=C/Cn1c(C)nc2nc(Cl)nc(Cl)c21` [Compound 103, (E)-1,4-bis(2,6-dichloro-8-methyl-7H-purin-7-yl)but-2-ene], 5000 to 10000 nM.

The next assay concerns TLR7/9 signaling pathways. Description: Effect on TLR7/9 signaling.
Conditions: not given
In kind it is cell-based. Here is the method:
(§1) Evaluation of activity of compounds in THP-1 cells for their inhibition of STING, LPS, ppp-dsRNA & Poly IC induction: THP-1 cells were treated with different concentrations (10 uM to 0.01 uM) of Compounds for 1 h followed by STING/TLR3/TLR4/RIG-I/TLR7/9 activation by corresponding agonists. Lipofectamine (LTX) was used along with dsRNA, 2′-3′cGAMP & VACV-70. The cells were then incubated for 20 hours @ 37° C. before measuring IRF activation by using Quanti-Luc. The % inhibition was calculated as 100-[(luminescence of COI treated well/luminescence of non COI treated well)/100]×100. Cytotoxicity was measured by using Cell Titer Glo.
As to `COC(=O)CCCCCCCCCCCCCCCn1cnc2nc(Cl)nc(Cl)c21` [Compound 6], the “effect on TLR7/9 signaling pathways” value is recorded as “does not affect”.

In a further assay the test system is RIG-I-IRF/NF-κB signaling pathway. Description: Inhibition of 3p-hpRNA-induced RIG-I-IRF/NF-κB signaling. Format: cell-based.
Conditions: not given
How it is done:
as §1
Turning to `COC(=O)CCCCCCCCCCCCCCCn1cnc2nc(Cl)nc(Cl)c21` [Compound 6], the “inhibition of 3p-hpRNA-induced RIG-I-IRF/NF-κB signaling pathway” value was “weakly inhibits”.

Another assay concerns cGAS-STING-IRF/NF-κB signaling pathway. Description: Inhibition of dsDNA-induced cGAS-STING-IRF/NF-κB signaling. In kind it is cell-based.
Conditions: not given
How it is done:
as §1
Turning to `COC(=O)CCCCCCCCCCCCCCCn1cnc2nc(Cl)nc(Cl)c21` [Compound 6], the “inhibition of dsDNA-induced cGAS-STING-IRF/NF-κB signaling pathway” value is on record as “weakly inhibits”.
